Data published in patent US9255072B2, “Pyrazole compounds and thiazole compounds as protein kinases inhibitors” (National Health Rsearch Institutes, priority 2011, dated 2016).
Where two headings read alike, the source gives them in different places.

Experiments:
Format in all cases: biochemical
[1] = molecular target: T1, Aurora A (Homo sapiens, UniProt O14965); assay: Aurora kinase A Kinase-Glo kinase assay; conditions: Aurora A assay, 5 μM ATP, read-out: IC50
T1 construct: GST-Aurora A (residues S123-S401); GST (N); made in house; host or cells: Sf9 insect cells
T1 sequence (O14965 123-401): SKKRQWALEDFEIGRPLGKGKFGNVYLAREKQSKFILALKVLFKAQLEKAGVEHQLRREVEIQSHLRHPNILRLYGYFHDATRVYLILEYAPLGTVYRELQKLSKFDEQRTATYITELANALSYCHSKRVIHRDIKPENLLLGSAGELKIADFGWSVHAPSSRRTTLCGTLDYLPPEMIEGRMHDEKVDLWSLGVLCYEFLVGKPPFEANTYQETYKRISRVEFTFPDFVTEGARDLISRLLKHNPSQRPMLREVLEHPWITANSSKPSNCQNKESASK
Description: The recombinant GST-Aurora A (residues S123-S401) containing kinase domain were expressed in Sf9 insect cells. The kinase assay were carried out in 96-well plates with tested compound in a final volume of 50 μl reaction at 37° C. for 90 minutes with following components: 50 mM Tris-HCl pH 7.4, 10 mM NaCl, 10 mM MgCl2, 0.01% BSA, 5 μM ATP, 1 mM DTT and 15 μM tetra(LRRASLG) peptide, and 150 ng recombinant Aurora A. Following incubation, 50 μl Kinase-Glo Plus Reagent (Promega, Madison, Wis., USA) was added to each well and the mixture was incubated at 25° C. for 20 min. A 70-μL aliquot of each reaction mixture was transferred to a black microtiter plate and the luminescence was measured on Wallac Vector 1420 multilabel counter (PerkinElmer, Shelton, Conn., USA).

[2] = molecular target: T2, wt-FLT3 (Homo sapiens, UniProt P36888); assay: FLT3 WT Kinase-Glo assay; conditions: FLT3 WT Kinase-Glo, 1 μM ATP; read-out: IC50
T2 construct: FLT3 kinase catalytic domain (residues Y567˜S993); made in house; host or cells: Sf9 insect cells (baculovirus, pBac-PAK8-GST-FLT3-KD plasmid)
T2 sequence (P36888 567-993): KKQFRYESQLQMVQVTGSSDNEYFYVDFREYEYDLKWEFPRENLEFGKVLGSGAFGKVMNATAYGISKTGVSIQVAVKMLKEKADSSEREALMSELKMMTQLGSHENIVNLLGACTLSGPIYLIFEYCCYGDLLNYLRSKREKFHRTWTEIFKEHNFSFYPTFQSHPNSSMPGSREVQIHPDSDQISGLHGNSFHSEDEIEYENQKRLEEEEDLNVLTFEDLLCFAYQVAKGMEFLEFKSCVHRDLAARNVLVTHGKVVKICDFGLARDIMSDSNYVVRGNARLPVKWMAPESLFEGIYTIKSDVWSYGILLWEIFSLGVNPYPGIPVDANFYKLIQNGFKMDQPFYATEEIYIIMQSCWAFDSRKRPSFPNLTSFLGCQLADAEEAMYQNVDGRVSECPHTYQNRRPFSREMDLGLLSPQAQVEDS
Description: GST-FLT3-KD^WT containing the FLT3 kinase catalytic domain (residues Y567˜S993) were expressed in Sf9 insect cells transfected the baculovirus containing pBac-PAK8-GST-FLT3-KD plasmid. […] Following incubation, 50 μl Kinase-Glo Plus Reagent (Promega, Madison, Wis., USA) was added to each well and the mixture was incubated at 25° C. for 20 min. A 70-μL aliquot of each reaction mixture was transferred to a black microtiter plate and the luminescence was measured on Wallac Vector 1420 multilabel counter (PerkinElmer, Shelton, Conn., USA).

[3] = molecular target: T3, VEGFR1 (Homo sapiens, UniProt P17948); assay: VEGFR1 Kinase-Glo kinase assay; conditions: VEGFR1 assay, 1 μM ATP, read-out: IC50
T3 construct: GST-VEGFR1 (residues R781-I1338); GST (N); made in house; host or cells: Sf9 insect cells
T3 sequence (P17948 781-1338): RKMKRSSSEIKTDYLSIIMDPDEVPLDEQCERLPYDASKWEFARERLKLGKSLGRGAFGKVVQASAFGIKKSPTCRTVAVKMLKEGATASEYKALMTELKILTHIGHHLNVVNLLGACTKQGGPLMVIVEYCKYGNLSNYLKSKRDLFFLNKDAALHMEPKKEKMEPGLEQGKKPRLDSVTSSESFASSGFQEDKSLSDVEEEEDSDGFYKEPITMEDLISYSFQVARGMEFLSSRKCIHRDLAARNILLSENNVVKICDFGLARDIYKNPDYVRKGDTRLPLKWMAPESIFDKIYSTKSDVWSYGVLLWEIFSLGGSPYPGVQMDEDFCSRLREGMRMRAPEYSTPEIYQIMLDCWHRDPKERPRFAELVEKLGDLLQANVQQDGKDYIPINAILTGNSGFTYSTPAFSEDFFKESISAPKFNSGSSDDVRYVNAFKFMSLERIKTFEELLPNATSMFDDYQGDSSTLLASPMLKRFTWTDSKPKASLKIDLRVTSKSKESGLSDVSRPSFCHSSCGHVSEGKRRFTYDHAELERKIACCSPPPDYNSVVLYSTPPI
Description: (§1) The recombinant GST-VEGFR1 (residues R781-I1338) or GST-VEGFR2 (residues V789-V1356) containing kinase domain were expressed in Sf9 insect cells. The kinase assay were carried out in 96-well plates with tested compound in a final volume of 50 μl reaction at 30° C. for 120 minutes with following components: 25 mM HEPES pH 7.4, 10 mM MgCl2, 4 mM MnCl2, 0.5 mM Na3VO4, 2 mM DTT, 0.02% Triton X100, 0.01% BSA, 1 μM ATP, 2 μM polyGlu4:Tyr peptide, 50˜100 ng recombinant VEGFR1 or VEGFR2. Following incubation, 50 μl Kinase-Glo Plus Reagent (Promega, Madison, Wis., USA) was added to each well and the mixture was incubated at 25° C. for 20 min. A 70-μL aliquot of each reaction mixture was transferred to a black microtiter plate and the luminescence was measured on Wallac Vector 1420 multilabel counter (PerkinElmer, Shelton, Conn., USA).

[4] = molecular target: T4, VEGFR2 (Homo sapiens, UniProt P35968); assay: VEGFR2 Kinase-Glo kinase assay; conditions: VEGFR2 assay, 1 μM ATP, read-out: IC50
T4 construct: GST-VEGFR2 (residues V789-V1356); GST (N); made in house; host or cells: Sf9 insect cells
Description: as §1

T4 sequence (P35968 789-1356): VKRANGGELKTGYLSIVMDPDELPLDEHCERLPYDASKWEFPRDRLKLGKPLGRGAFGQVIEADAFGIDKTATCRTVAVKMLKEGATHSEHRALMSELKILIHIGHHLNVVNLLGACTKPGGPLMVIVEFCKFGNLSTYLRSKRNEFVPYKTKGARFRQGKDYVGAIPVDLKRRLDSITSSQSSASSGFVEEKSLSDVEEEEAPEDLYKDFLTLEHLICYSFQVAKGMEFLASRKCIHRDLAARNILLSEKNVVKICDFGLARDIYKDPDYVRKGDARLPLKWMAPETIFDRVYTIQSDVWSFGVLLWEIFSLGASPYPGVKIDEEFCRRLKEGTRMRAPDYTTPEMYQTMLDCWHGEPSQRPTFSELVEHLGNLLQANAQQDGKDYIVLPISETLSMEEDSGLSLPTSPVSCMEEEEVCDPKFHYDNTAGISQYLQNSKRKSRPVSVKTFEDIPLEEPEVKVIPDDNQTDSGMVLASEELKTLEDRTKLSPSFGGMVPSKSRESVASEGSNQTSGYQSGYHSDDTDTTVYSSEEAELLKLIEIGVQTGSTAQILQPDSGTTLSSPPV

| Compound | IC50 ([1]; bound in nM) [nM] | IC50 ([1]; bound in μM) [nM] | IC50 [2] [nM] | IC50 ([3]; bound in μM) [µM] | IC50 ([4]; bound in μM) [µM] | IC50 ([4]; ranges in nM) [µM] | IC50 ([3]; bound in nM) [µM] |
| --- | --- | --- | --- | --- | --- | --- | --- |
| CN1CCN(c2ccc(C(=O)Nc3cc(-c4ccc(NC(=O)c5ccccc5)cc4)n[nH]3)cc2)CC1 [Compound 10, N1-3-[4-(benzoylamino)phenyl]-1H-5-pyrazolyl-4-(4-methylpiperazino)benzamide] | < 200 | < 1000 |  |  |  |  |  |
| CN1CCN(c2ccc(C(=O)Nc3cc(-c4cccc(NS(=O)(=O)c5ccccc5)c4)n[nH]3)cc2)CC1 [Compound 12, N1-(3-3-[(phenylsulfonyl)amino]phenyl-1H-5-pyrazolyl)-4-(4-methylpiperazino)benzamide] |  | < 1000 | 1 to 20 | < 1 | < 1 | 0.055 to 0.4 |  |
| Cc1cccc(S(=O)(=O)Nc2cccc(-c3cc(NC(=O)c4ccc(N5CCN(C)CC5)cc4)[nH]n3)c2)c1 [Compound 15, N1-[3-(3-[(3-methylphenyl)sulfonyl]aminophenyl)-1H-5-pyrazolyl]-4-(4-methylpiperazino)benzamide] |  | < 1000 | 1 to 20 | < 1 | < 1 | 0.055 to 0.4 |  |
| CN1CCN(c2ccc(C(=O)Nc3cc(-c4ccc(NC(=O)Nc5ccccc5)cc4)n[nH]3)cc2)CC1 [Compound 30, N1-(3-4-[(anilinocarbonyl)amino]phenyl-1H-5-pyrazolyl)-4-(4-methylpiperazino)benzamide] |  | < 1000 | 1 to 20 |  | < 1 | 0.001 to 0.055 |  |
| Cc1cc(NC(=O)Nc2ccc(-c3cc(NC(=O)c4ccc(N5CCN(C)CC5)cc4)[nH]n3)cc2)no1 [Compound 32, N1-3-[4-([(5-methyl-3-isoxazolyl)amino]carbonylamino)phenyl]-1H-5-pyrazolyl-4-(4-methylpiperazino)benzamide] | < 200 | < 1000 | 1 to 20 | < 1 | < 1 | 0.001 to 0.055 |  |
| CN1CCN(Cc2ccc(C(=O)Nc3cc(-c4ccc(NC(=O)Nc5cc(C(C)(C)C)on5)cc4)n[nH]3)cc2)CC1 [Compound 43, N1-(3-4-[([5-(tert-butyl)-3-isoxazolyl]aminocarbonyl)amino]phenyl-1H-5-pyrazolyl)-4-[(4-methylpiperazino)methyl]benzamide] | < 200 | < 1000 | 1 to 20 | < 1 | < 1 | 0.001 to 0.055 | < 0.1 |
| CC(C)(C)c1cc(NC(=O)Nc2ccc(-c3cc(NC(=O)c4ccc(OCCN5CCOCC5)cc4)[nH]n3)cc2)no1 [Compound 44, N1-(3-4-[([5-(tert-butyl)-3-isoxazolyl]aminocarbonyl)amino]phenyl-1H-5-pyrazolyl)-4-(2-morpholinoethoxy)benzamide] | < 200 | < 1000 | 1 to 20 | < 1 | < 1 | 0.001 to 0.055 | < 0.1 |
| Cc1cc(NC(=O)Nc2ccc(-c3cc(NC(=O)c4ccc(N5CCN(C)CC5)cc4)[nH]n3)cc2C)no1 [Compound 47, N1-3-[3-methyl-4-([(5-methyl-3-isoxazolyl)amino]carbonylamino)phenyl]-1H-5-pyrazolyl-4-(4-methylpiperazino)benzamide] |  | < 1000 | 1 to 20 |  | < 1 | 0.001 to 0.055 |  |
| O=C(NCc1ccc(-c2cc(NC(=O)c3ccc(OCCN4CCOCC4)cc3)[nH]n2)cc1)Nc1ccccc1 [Compound 61a, N1-[3-(4-[(anilinocarbonyl)amino]methylphenyl)-1H-5-pyrazolyl]-4-(2-morpholinoethoxy)benzamide] |  | < 1000 | 1 to 20 |  | < 1 | 0.001 to 0.055 |  |

The next lines start with the values.

| IC50 ([1]; bound in nM) [nM] | IC50 ([1]; bound in μM) [nM] | IC50 [2] [nM] | IC50 ([3]; bound in μM) [µM] | IC50 ([4]; bound in μM) [µM] | IC50 ([4]; ranges in nM) [µM] | IC50 ([3]; bound in nM) [µM] | Compound |
| --- | --- | --- | --- | --- | --- | --- | --- |
|  | < 1000 | 1 to 20 | < 1 | < 1 | 0.055 to 0.4 | < 0.1 | CN1CCN(c2ccc(C(=O)Nc3cc(-c4ccc(CNC(=O)OCc5ccccc5)cc4)n[nH]3)cc2)CC1 [Compound 70, Benzyl-N-[4-(5-[4-(4-methylpiperazino)benzoyl]amino-1H-3-pyrazolyl)benzyl]carbamate] |
|  | < 1000 | 1 to 20 | < 1 | < 1 | 0.055 to 0.4 |  | Cc1nc(Nc2cc(-c3cccc(NS(=O)(=O)c4ccccc4)c3)n[nH]2)cc(N2CCN(C)CC2)n1 [Compound 85, N1-[3-(5-[2-methyl-6-(4-methylpiperazino)-4-pyrimidinyl]amino-1H-3-pyrazolyl)phenyl]-1-benzenesulfonamide] |
| < 200 |  | 1 to 20 |  |  |  |  | CCN1CCN(c2cc(Nc3ncc(-c4ccc(N)cc4)s3)nc(C)n2)CC1 [Compound 102] |
|  | < 1000 |  |  |  |  |  | Cc1nc(Nc2ncc(-c3ccc(NC(=O)Nc4cc(C)on4)cc3)s2)cc(N2CCN(C)CC2)n1 [Compound 103, N-(5-methyl-3-isoxazolyl)-N′-[4-(2-[2-methyl-6-(4-methylpiperazino)-4-pyrimidinyl]amino-1,3-thiazol-5-yl)phenyl]urea] |
| < 200 |  |  |  |  |  |  | Cc1cc(NC(=O)Nc2ccc(-c3cnc(NC(=O)c4ccc(OCCN5CCOCC5)cc4)s3)cc2)no1 [Compound 120, N1-5-[4-([(5-methyl-3-isoxazolyl)amino]carbonylamino)phenyl]-1,3-thiazol-2-yl-4-(2-morpholinoethoxy)benzamide] |
